Tests used:
[1] = tested on: CaCo2 (human colon carcinoma cell line); experiment: Cell Proliferation ELISA, BrdU; assay type: cell-based; details: highest concentration 1 mM
Experimental: (§1) The following cell lines are used for determination of cytotoxicity: • CaCo2 (human colon carcinoma cell line) • Huh7 (human liver carcinoma cell line).
(§2) Cells are cultivated in DMEM/10% FCS at 37° C. and 5% CO2 in a 96 well plate with an initial seeding density of 2×10^4 cells/well.
(§3) Transglutaminase inhibitors are added to the cells with final concentrations from 0.1 μM to 1 mM one hour after seeding. The different inhibitor dilutions are prepared in DMSO, resulting in a final concentration of 1% (v/v) DMSO in every well (2 μl inhibitor in 200 μl cell culture medium). Cycloheximide (2.5 μg/ml) and Camptothecin (0.2 μg/ml) are used as control compounds. All measurements are performed in triplicates.
(§4) Determination of proliferation using Cell Proliferation ELISA, BrdU (Roche, Cat. No. 11647229001).
(§5) After 24 h of incubation with inhibitors or controls, BrdU is added to the cells. After further incubation for 18 h, the cells are fixed and cellular DNA becomes denatured. A monoclonal antibody (conjugated with peroxidase) raised against BrdU is added to the wells and binds to BrdU which is incorporated into the DNA. Substrate solution is added and absorbance at 450 nm is recorded. Further analysis is performed according to the manufacturer's protocol.

[2] = tested on: Huh7 (human liver carcinoma cell line); experiment: Cell Proliferation ELISA, BrdU; assay type: cell-based; details: highest concentration 1 mM
Experimental: as §1, §2, §3, §4, §5

[3] = target: T1, recombinant human factor XIII A-subunit (rhFXIII-A, plasma transglutaminase) (Homo sapiens, UniProt P00488); experiment: Inhibition of rec. human coagulation factor XIII (fluorescence, Abz-NE(CAD-DNP)EQVSPLILLK-OH); assay type: biochemical; details: Table 1, selectivity with respect to FXIII; read-out: IC50 FXIII
T1 construct: His6; purchased Zedira 1027 (so in the source); T027)
T1 sequence (P00488 39-732 limits assumed): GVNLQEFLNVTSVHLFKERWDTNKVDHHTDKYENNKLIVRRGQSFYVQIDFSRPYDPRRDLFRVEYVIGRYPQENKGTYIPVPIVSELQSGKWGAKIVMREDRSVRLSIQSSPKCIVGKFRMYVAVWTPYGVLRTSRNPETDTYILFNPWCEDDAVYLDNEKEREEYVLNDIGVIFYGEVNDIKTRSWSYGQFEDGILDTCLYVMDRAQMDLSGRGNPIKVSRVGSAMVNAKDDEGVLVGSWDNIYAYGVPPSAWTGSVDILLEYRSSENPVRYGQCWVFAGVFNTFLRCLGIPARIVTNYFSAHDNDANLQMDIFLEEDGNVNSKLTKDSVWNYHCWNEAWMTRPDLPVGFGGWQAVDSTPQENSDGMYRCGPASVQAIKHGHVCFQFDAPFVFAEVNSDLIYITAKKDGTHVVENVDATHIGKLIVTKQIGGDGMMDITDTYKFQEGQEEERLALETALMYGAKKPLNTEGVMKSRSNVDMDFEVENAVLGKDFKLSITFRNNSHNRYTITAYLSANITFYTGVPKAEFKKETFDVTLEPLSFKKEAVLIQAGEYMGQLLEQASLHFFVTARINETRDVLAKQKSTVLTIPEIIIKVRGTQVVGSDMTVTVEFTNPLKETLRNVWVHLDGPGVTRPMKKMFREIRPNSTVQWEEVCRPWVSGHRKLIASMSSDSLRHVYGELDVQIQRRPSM
Outline: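 His6-rhFXIII activated by human alpha thrombin in Tris buffer pH 7.4 with 7.5 mM CaCl2, 5 mM DTT, 13.4 mM glycine methylester and 50 μM quenched peptide substrate. Fluorescence (ex 313, em 418 nm) followed at 37 °C for 35 min; IC50 from slope between 20 and 30 min versus 2% DMSO control.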

[4] = tested on: CaCo2 (human colon carcinoma cell line); experiment: Metabolic activity, EZ4U-Assay; assay type: cell-based; details: highest concentration 1 mM
Experimental: as §1, §2, §3
(§6) Determination of metabolic activity using EZ4U-Assay (Biomedica, Cat. No. BI-5000).
(§7) After 48 h of incubation with inhibitors or controls, the tetrazolium substrate is added to the cells. Substrate turnover by the cells is measured over two hours at 450 nm (using 630 nm was reference wavelength).

[5] = tested on: Huh7 (human liver carcinoma cell line); experiment: Metabolic activity, EZ4U-Assay; assay type: cell-based; details: highest concentration 1 mM
Experimental: as §1, §2, §3, §6, §7

| IC50 [3] [µM] | SMILES | Cytotoxicity concentration (>10% deviation from negative control), BrdU, Caco2 [1] [mM] | Cytotoxicity concentration (>10% deviation from negative control), BrdU, Huh-7 [2] [mM] | Cytotoxicity concentration (>10% deviation from negative control), EZ4U, Caoo2 [4] [mM] | Cytotoxicity concentration (>10% deviation from negative control), EZ4U, Huh-7 [5] [mM] |
| --- | --- | --- | --- | --- | --- |
| > 100 | COC(=O)[C@H](CC(C)C)NC(=O)[C@@H]1CCCN1C(=O)[C@@H](NC(=O)[C@H](CCC(=O)C(N)=O)NC(=O)OCc1ccccc1)C(C)C [Compound E02, (S)-methyl 2-((S)-1-((S)-2-((S)-6-amino-2-(benzyloxycarbonylamino)-5,6-dioxo-hexanamido)-3-methylbutanoyl)pyrrolidine-2-carboxamido)-4-methylpentanoate] | >1 | >1 | >1 | >1 |
| > 100 | CC(=O)N[C@@H](CCC(=O)C(N)=O)C(=O)N1CCN(c2ccccc2Cl)CC1 [Compound E06, (S)-5-acetamido-6-(4-(2-chlorophenyl)piperazin-1-yl)-2,6-dioxohexanamide] | >1 | >1 | >1 | >1 |
| > 100 | CC(=O)N1CCC[C@H]1C(=O)N[C@@H](CCC(=O)C(N)=O)C(=O)N1CCN(c2ncccc2C)CC1 [Compound E07, (S)-1-acetyl-N—((S)-6-amino-1-(4-(3-methylpyridin-2-yl)piperazin-1-yl)-1,5,6-trioxohexan-2-yl)pyrrolidine-2-carboxamide] | >1 | >1 | >1 | >1 |

From patent publication US11072634B2, “Inhibitors of transglutaminases” (Zedira GmbH, priority 2016, dated 2021)
